Experimental data as given in patent US12390451B2, “Small molecule inhibitor of the JAK family of kinases” (Janssen Pharmaceutica NV, priority 2021, dated 2025).
Where two headings read alike, the source gives them in different places.

Assay: Tissue distribution in rats after oral administration
Assay type: in vivo, male Sprague-Dawley rats
Conditions: male, Sprague-Dawley, rat, PO 25 mg/kg
Description: Preliminary tissue distribution studies were conducted in male Sprague-Dawley rats (N=3/time point) at 0.5, 1, 2, 3, 5, 7, and 24 hours following oral administration of compound of Formula I at a dose of 25 mg/kg. The following tissues were harvested for compound concentration analysis: liver, kidney, brain, muscle, epididymis fat, duodenum, jejunum, ileum, colon (both lumen content and tissue), and plasma. The results of this study indicated low systemic exposure and high local concentrations (intestinal tract).

[1] = duodenum lumen content, average, N = 3, read-out: Duod. Content concentration
[2] = duodenum tissue, average, N = 3, read-out: Duod. Tissue concentration
[3] = ileum lumen content, average, N = 3, read-out: Ileum Content concentration
[4] = ileum tissue, average, N = 3, read-out: Ileum Tissue concentration
[5] = jejunum lumen content, average, N = 3, read-out: Jejunum Content concentration
[6] = jejunum tissue, average, N = 3, read-out: Jejunum Tissue concentration
[7] = kidney, average ±SD, read-out: Kidney concentration
[8] = liver, average ±SD, read-out: Liver concentration
[9] = plasma, average ±SD, read-out: Plasma concentration

concentration at 0.5 h [1]: 329000 ng/mL
concentration at 1 h [1]: 45500 ng/mL
concentration at 2 h [1]: 20200 ng/mL
concentration at 3 h [1]: 15800 ng/mL
concentration at 5 h [1]: 4470 ng/mL
concentration at 7 h [1]: 2630 ng/mL
concentration at 24 h [1]: 60 ng/mL
concentration at 0.5 h [2]: 35200 ng/g
concentration at 1 h [2]: 16700 ng/g
concentration at 2 h [2]: 3170 ng/g
concentration at 3 h [2]: 3840 ng/g
concentration at 5 h [2]: 1100 ng/g
concentration at 7 h [2]: 366 ng/g
concentration at 24 h [2]: 17 ng/g
concentration at 0.5 h [3]: 644 ng/mL
concentration at 1 h [3]: 496 ng/mL
concentration at 2 h [3]: 725000 ng/mL
concentration at 5 h [3]: 597000 ng/mL
concentration at 7 h [3]: 133000 ng/mL
concentration at 24 h [3]: 893 ng/mL
concentration at 0.5 h [4]: 1340 ng/g
concentration at 1 h [4]: 252 ng/g
concentration at 2 h [4]: 8950 ng/g
concentration at 3 h [4]: 50800 ng/g
concentration at 5 h [4]: 18000 ng/g
concentration at 7 h [4]: 6490 ng/g
concentration at 0.5 h [5]: 533000 ng/mL
concentration at 1 h [5]: 249000 ng/mL
concentration at 2 h [5]: 90700 ng/mL
concentration at 3 h [5]: 48000 ng/mL
concentration at 5 h [5]: 26300 ng/mL
concentration at 7 h [5]: 10300 ng/mL
concentration at 24 h [5]: 228 ng/mL
concentration at 0.5 h [6]: 47200 ng/g
concentration at 1 h [6]: 23500 ng/g
concentration at 2 h [6]: 8230 ng/g
concentration at 3 h [6]: 3980 ng/g
concentration at 5 h [6]: 1810 ng/g
concentration at 7 h [6]: 788 ng/g
concentration at 24 h [6]: 27 ng/g
concentration at 0.5 h [7]: 57.9 ± 26.2 ng/g
concentration at 2 h [7]: 24.3 ± 6.6 ng/g
concentration at 3 h [7]: 30 ± 9.4 ng/g
concentration at 5 h [7]: 12.9 ± 3.6 ng/g
concentration at 7 h [7]: 19.9 ± 7.8 ng/g
concentration at 0.5 h [8]: 158 ± 104 ng/g
concentration at 1 h (liver, SD NA, read-out: Liver concentration): 70.4 ng/g
concentration at 2 h [8]: 49.9 ± 17.5 ng/g
concentration at 3 h [8]: 29.6 ± 14.5 ng/g
concentration at 5 h [8]: 18.7 ± 3 ng/g
concentration at 7 h [8]: 20.7 ± 3 ng/g
concentration at 0.5 h (muscle, average ±SD, read-out: Muscle concentration): 16.7 ± 15 ng/g
concentration at 0.5 h [9]: 6.3 ± 1.1 ng/mL
concentration at 2 h [9]: 3.7 ± 0.9 ng/mL
concentration at 3 h [9]: 3.1 ± 1.1 ng/mL
concentration at 5 h [9]: 1.5 ± 0.7 ng/mL
concentration at 7 h [9]: 2.1 ± 0.5 ng/mL
Compound: CC(C)(O)CNC(=O)Cc1nc2cnc3[nH]ccc3c2n1[C@H]1CC[C@H](CC#N)CC1 [Compound of Formula I, 2-(1-((1r,4r)-4-(Cyanomethyl)cyclohexyl)-1,6-dihydroimidazo[4,5-d]pyrrolo[2,3-b]pyridin-2-yl)-N-(2-hydroxy-2-methylpropyl)acetamide]
